# Assay results reported in article PMC3684770 (Free Radical Biology & Medicine, 2013).
# Like-named read-outs stand apart in the source and are kept apart here.
# Tests used:
# [1] = system: 1321N1 astrocyte cell line; assay: 1321N1 oxidative stress assay (serum withdrawal, DCF); details: for 1321N1 oxidative stress assay Toxic dose: minimum dose at which toxicity was observed; for Emax: 1321-N1, 24 h, read-out: 1321N1 oxidative stress assay Max reduction
# Method: (§1) Media were then replaced with serum-free, phenol-free media for 5 h.
# C6 astrocyte cell line = assay: C6 oxidative stress assay (serum withdrawal, DCF); details: for IC50: read-out: C6 oxidative stress assay IC50; for C6 oxidative stress assay Toxic dose: minimum dose at which toxicity was observed; for Emax: 24 h, read-out: C6 oxidative stress assay Max reduction
# Method: as §1
# NSC34 cells = assay: NSC34 oxidative stress assay (serum withdrawal, DCF); details: for NSC34 oxidative stress assay Toxic dose: minimum dose at which toxicity was observed; for Emax: NSC-34, 24 h, read-out: NSC34 oxidative stress assay Max reduction
# Method: as §1
# Nrf2-ARE pathway = assay: ARE reporter assay in CHO 4xARE-TK-GFP cells (Spectrum library hits); details: for Toxic dose: lowest dose at which a reduction in GFP fluorescence was observed; for maximal fold induction: CHO, read-out: Fold GFP induction
# Method: The Z′ score was calculated as follows Z′=1−(3SD^++3SD^−)/(Ave^+–Ave^−) where SD^+ = standard deviation of positive control wells; SD^− = standard deviation of negative control wells; Ave^+ = average fluorescence reading of positive control wells; Ave^− = average fluorescence reading of negative control wells.
# Media was removed by hand and replaced (1 compound/well) with the Spectrum library diluted to 10 μM in 0.1% DMSO using a Q-bot liquid handling system (Genetix, New Milton, UK). […] The TK-GFP CHO ARE cell line was screened twice in a single point assay and the control TK-GFP CHO cell line was screened once to eliminate false positives.
# The compounds were applied in triplicate to confluent cells in 96 well plates in serum free medium for 24 hours and the induction of GFP measured in a fluorescence plate reader.
# In order to screen the Spectrum collection of 2000 molecules the reporter assay was optimised in […]. To assess the suitability of the assay for library screening, a Z’ score calculation was performed by treating alternate wells with vehicle (0.1% DMSO) and 10 µM Ebselen as a positive control (see calculation in Methods). […] The library was subsequently screened at a single point concentration of 10µM for every compound. Drug library dilutions and plating were performed with a Q-BOT liquid handling system and both the 4xARE-TK-GFP reporter cell line and TK-GFP control cell line were tested for their response to the compounds. Hits were identified as having data points more than three standard deviations above the background level, which was the average value of 24 wells treated with vehicle (0.1% DMSO) only. Hit compounds were checked to see if they generated a response in the control cell line, for example by non-specific activation of transcription or autofluorescence. […] The library screen was repeated once in the 4xARE –TK-CHO cell line and compounds classed as hits in both screens were taken forward for further assessment.
# [2] = maximum % inhibition of DCF signal
# [3] = average fold over baseline at the maximal response, CHO cells, 24 h
# [4] = Homo sapiens, 1321-N1, read-out: 1321N1 oxidative stress assay IC50
Compound,1321N1 oxidative stress assay Toxic dose [1],C6 oxidative stress assay Toxic dose (C6 astrocyte cell line),NSC34 oxidative stress assay Toxic dose (NSC34 cells),Toxic dose (Nrf2-ARE pathway) [µM],Emax ([1]; Homo sapiens) [%],"Emax (C6 astrocyte cell line; Rattus norvegicus, Astrocyte) [%]","IC50 (C6 astrocyte cell line; Rattus norvegicus, Astrocyte) [µM]",Emax (NSC34 cells; Mus musculus) [%],EC50 (Nrf2-ARE pathway; Cricetulus griseus) [µM],"IC50 [1, 4] [µM]",further results
3-α-Hydroxygedinin,,,,,,,,,,,1321N1 oxidative stress assay Max reduction [1]: 25%; C6 oxidative stress assay Max reduction (C6 astrocyte cell line): 42%; IC50 (C6 astrocyte cell line): 3.22 µM; NSC34 oxidative stress assay Max reduction (NSC34 cells): 14%; Fold GFP induction (Nrf2-ARE pathway): 3.01 fold
3β Hydroxydeoxydesacetoxy-7-oxogedunin,None,None,3 µM,30,,,,,,,"1321N1 oxidative stress assay Max reduction [1, 2]: 62%; IC50 ([1]; read-out: 1321N1 oxidative stress assay IC50, 24-h preconditioning, 6-h serum withdrawal, DCF fluorescence): 3.96 µM; C6 oxidative stress assay Max reduction (C6 astrocyte cell line; [2]): 67%; IC50 (C6 astrocyte cell line; 24-h preconditioning, 6-h serum withdrawal, DCF fluorescence): 3.07 µM; NSC34 oxidative stress assay Max reduction (NSC34 cells; maximum % inhibition of DCF signal, negative = prooxidant): 0%; EC50 (Nrf2-ARE pathway; CHO ARE reporter, 7-point concentration response): 8.71 µM; Fold GFP induction (Nrf2-ARE pathway; [3]): 2.55 fold"
"COc1cc(O)c(C)c(O)c1 [2,6-Dihydroxy-4-methoxytoluene]",None,10 µM,None,100,40,16,5.29,28,45,,"IC50 (NSC34 cells; Mus musculus, NSC-34, read-out: NSC34 oxidative stress assay IC50): ~3.26 µM"
Cc1[nH]c2ccccc2c1CN(C)C [2-Methyl gramine],none,none,3 µM,100,36,36,32,-30,3,11,"maximal fold induction (Nrf2-ARE pathway; Cricetulus griseus, 24 h): 2.27"
"CC(=O)OC1CC[C@@]2(C)C(CC[C@H]3[C@@H]4CC=C(C(C)=O)[C@@]4(C)C(=O)C[C@@H]32)C1 (some centres unmarked) [3 Acetoxypregn-16-en-12,20-dione]",None,None,None,30,75,50,5.34,0,2.98,12.4,
COc1cccc(O)c1O [3-Methoxycatechol],none,10 µM,0.3 µM,100,39,46,1.2,-13,15.4,,
Cc1cc(O)c(C)c(O)c1C(=O)O [3-Methylorsellinic acid],none,none,0.3 µM,100,53,56,3.1,-12,9.59,3.26,
CC(=O)Oc1ccc(O)cc1 [4-Acetoxyphenol],none,none,none,100,42,0,,-70,2.91,0.298,
COc1ccc(/C=C/C(=O)c2ccccc2)cc1 [4-Methoxychalcone],None,None,None,100,30,82,3.55,24,15,3.6,Fold GFP induction (Nrf2-ARE pathway; [3]): 2.13 fold
C=CC(C1=CC(=O)C(OC)=CC1=O)c1ccccc1 (centres unmarked) [4-Methoxydalbergione],none,none,none,100,43,14,2.5,-44,,,"maximal fold induction (Nrf2-ARE pathway; Cricetulus griseus, 24 h): 2.11"
